A short description of test [1]: Anti-glycation assay (L-arginine and glucose, absorbance at 420 nm). It counts as biochemical. The settings on record: pH 7.4, 70 ℃, 4 h, 0.1 M glucose.
Test [2] has as its system type I collagen [제1형 콜라겐(type I collagen)]. Briefly: Type I collagen synthesis in human-derived fibroblasts (PICP EIA kit). It counts as cell-based. The settings on record: 48 h culture, n=4; for type I collagen synthesis amount: negative control 150.2; for increase rate (type I collagen synthesis): relative to untreated control.
The target of test [3] is T1, elastase [엘라스테이즈(Elastase)] (Homo sapiens, UniProt P08246).
T1 construct: 엘라스테이즈(Elastase)는 사람의 백혈구 세포로부터 유래한 엘라스테이즈를 사용하였고; from tissue; host or cells: human leukocytes (사람의 백혈구 세포)
T1 sequence (P08246 30-267): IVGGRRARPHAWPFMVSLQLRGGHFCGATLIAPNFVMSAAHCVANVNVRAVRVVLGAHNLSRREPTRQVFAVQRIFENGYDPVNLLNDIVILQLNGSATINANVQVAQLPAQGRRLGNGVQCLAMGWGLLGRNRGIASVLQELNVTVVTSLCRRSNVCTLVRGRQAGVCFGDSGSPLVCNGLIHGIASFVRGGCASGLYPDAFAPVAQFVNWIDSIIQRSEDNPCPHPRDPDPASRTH
Description: Elastase activity inhibition (human leukocyte elastase, MeOSuc-Ala-Ala-Pro-Val-pNA). The settings on record: for enzyme activity: slope of absorbance at 405 nm vs time, room temperature, 20 min, n=3, DMSO control 10.4. It counts as biochemical.

Test [4] has as its system nitric oxide (NO) production in RAW264.7 cells [RAW264.7 세포주, Nitric oxide(NO)]. Description: NO production inhibition in LPS-stimulated RAW264.7 cells (GRIESS method). It counts as cell-based. The settings on record: Mus musculus, LPS 1 μg, 24 h, 540 nm, read-out: NO production inhibition rate. A general note: Griess reagent forms a coloured azo dye with nitrite.
For test [5], the system named is B-16 mouse melanoma cell [쥐의 멜라노마 세포(B-16 mouse melanoma cell)]. Briefly: Total melanin amount in B-16 mouse melanoma cells. It counts as cell-based. The note with it: 3 days; for melanin production amount: absorbance at 400 nm per 1×10^6 cells, DMSO control 0.33.
Where [6] appears, read: pH 7.5, read-out: inhibition rate (elastase).
Where [7] appears, read: Mus musculus, 72 h, 10 ppm, relative to control, read-out: increase rate (total melanin).

On to `N=C(N)NN` [Aminoguanidine, reference compound], for which the “inhibition rate (glycation)” value in test [1] (55 ppm) is reported as 54.89%.
As for `COc1cc([C@H]2OC[C@H]3[C@@H]2CO[C@H]3c2ccc(OC)c(OC)c2)ccc1O` [화학식1의 화합물, phillygenin], the figures for the “type I collagen synthesis amount” value in test [2] (1 ppm) and in test [2] (10 ppm) were 187.6 ng/mL and 234.7 ng/mL, respectively. Also, the “increase rate (type I collagen synthesis)” value in test [2] (1 ppm) is reported as 24.9%; in test [2] (10 ppm), 56.3%. Moreover, the enzyme activity in test [3] (10 ppm) worked out at 3.9; in test [3] (20 ppm), 3.5. Moreover, the inhibition at 10 ppm in test [3] (setting [6]) came to 62.5%; in test [4], 20.6%. For the same compound, the inhibition at 20 ppm in test [3] (setting [6]) is 66.3%. In addition, the “inhibition rate (glycation)” value is given as 32.68% in test [1] (25 ppm) and 55.64% in test [1] (50 ppm). In addition, in test [4] (1 ppm), the inhibition at 1 ppm worked out at 17.9%. Moreover, the inhibition at 100 ppm in test [4] (100 ppm) was found to be 51.7%. For the same compound, the melanin production amount in test [5] (1 ppm) amounted to 0.359 abs; in test [5] (10 ppm), 0.403 abs. Besides, the activation at 1 ppm in test [5] (Mus musculus, 72 h, 1 ppm, relative to control, read-out: increase rate (total melanin)) was 8.79%. The activation at 10 ppm in test [5] (setting [7]) came to 22.1%.
On to `C=C[C@@]1(C)CC(=O)[C@]2(O)[C@@]3(C)[C@@H](O)CCC(C)(C)[C@@H]3[C@H](O)[C@H](OC(C)=O)[C@@]2(C)O1` [Forskolin, reference compound], for which the melanin production amount in test [5] (10 ppm) was found to be 0.792 abs. In addition, the activation at 10 ppm in test [5] (setting [7]) worked out at 140%.
In the case of `CNC(=N)NCCC[C@H](N)C(=O)O` [L-NMMA, L-NG-Monomethylarginine, reference compound], in test [4], the inhibition at 10 ppm was determined as 41%.
On to `O=C1O[C@H]([C@@H](O)CO)C(O)=C1O` [비타민 C, reference compound], for which, in test [2] (52.85 ppm (52.85 ㎍/ml)), the “type I collagen synthesis amount” value was determined as 246.8 ng/mL and the “increase rate (type I collagen synthesis)” value worked out at 64.3%.

What is called inhibition is how much of the control response was suppressed.
